Source: PubChem BioAssay (NCI)
Several values for one entry are separate records, joined by “and”; a condition that tells them apart may be missing. Equal entries are not always repeated.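 Step 1: Grow cells in 96-well plates. Step 2: Expose to compound for 48 hours at 5 concentrations. Step 3: Interpolate endpoints linearly; if unreached, use highest concentration. TGI marks complete inhibition of growth.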

How the values were obtained:
Assay in all cases: NCI tumour cell line growth inhibition, 48 h
SN12C renal = test system: SN12C renal
SW-620 colon = test system: SW-620 colon
NCI-H226 lung = test system: NCI-H226 lung
OVCAR-8 ovarian = test system: OVCAR-8 ovarian
KM12 colon = test system: KM12 colon
HOP-92 NSCLC = test system: HOP-92 NSCLC
OVCAR-4 ovarian = test system: OVCAR-4 ovarian
LOX IMVI melanoma = test system: LOX IMVI melanoma
HCT-15 colon = test system: HCT-15 colon
KM20L2 colon = test system: KM20L2 colon
SNB-78 CNS = test system: SNB-78 CNS
DMS 114 small cell lung = test system: DMS 114 small cell lung
XF 498 CNS = test system: XF 498 CNS

| Structure (SMILES) | TGI (SN12C renal) | TGI (SW-620 colon) | TGI (NCI-H226 lung) | TGI (OVCAR-8 ovarian) | TGI (KM12 colon) | TGI (HOP-92 NSCLC) | TGI (OVCAR-4 ovarian) | TGI (LOX IMVI melanoma) | TGI (HCT-15 colon) | TGI (KM20L2 colon) | TGI (SNB-78 CNS) | TGI (DMS 114 small cell lung) | TGI (XF 498 CNS) |
| --- | --- | --- | --- | --- | --- | --- | --- | --- | --- | --- | --- | --- | --- |
| CC(O)C1CC1(CO)CNc1cc(Cl)nc(N)n1 (centres undefined) | > 100 µM | > 100 µM | > 100 µM | > 100 µM | > 100 µM | > 100 µM | > 100 µM | > 100 µM | > 100 µM | – | – | – | – |
| Brc1cccc(Nc2nc(-c3cccs3)nc3ccc(Br)cc23)c1 | 71.3 µM | > 100 µM | > 100 µM | > 100 µM | 46.3 µM | > 100 µM | > 100 µM | > 100 µM | > 100 µM | – | – | – | – |
| CC(C(=O)n1nnc2ccccc21)N(c1ccccc1)c1ccccc1 (centres undefined) | > 100 µM | > 100 µM | > 100 µM | > 100 µM | – | – | – | > 100 µM | > 100 µM | > 100 µM | > 100 µM | – | – |
| CN(C)C(=S)S | > 100 µM | > 100 µM | > 100 µM | > 100 µM | > 100 µM | > 100 µM | > 100 µM | > 100 µM | > 100 µM | – | – | – | – |
| CCOC(=O)/C=C(\C)c1ccc(C)cc1C | > 100 µM | 37.8 µM | > 100 µM | > 100 µM | > 100 µM | 63.8 µM | > 100 µM | 31.3 µM | 88.6 µM | > 100 µM | > 100 µM | > 100 µM | 43.2 µM |
| Cc1csc(-c2cn(C)c3c2C(=O)C(N)=CC3=O)n1 | > 100 µM | > 100 µM | > 80.1 µM | > 100 µM | > 100 µM | > 100 µM | > 100 µM | > 100 µM | > 100 µM | – | – | – | – |
| CCCCC1c2c([nH]c3ccccc23)C2C(=O)N(c3ccc(OC)cc3)C(=O)C2C1CCC (centres undefined) | 4.04 µM | > 10 µM | > 10 µM | 8.24 µM | 5.65 µM | 7.86 µM | > 10 µM | > 10 µM | > 10 µM | – | – | – | – |
| O=C(NCCN1CCOCC1)c1ccc2cc(C(=O)N3CC(CCl)c4ccc([N+](=O)[O-])cc43)[nH]c2c1 (centres undefined) | 52.7 µM | > 100 µM | > 100 µM | 35.4 µM | > 100 µM | 38.4 µM | 32.6 µM | > 100 µM | > 100 µM | – | – | – | – |
| O=C(NCCCN(CCCCN(CCCNC(=O)C(F)(F)F)Cc1ccccc1)Cc1ccccc1)C(F)(F)F | 36.5 µM | 34.2 µM | 34.4 µM | 26.9 µM | 25.9 µM | 38.1 µM | 68.1 µM | 21.3 µM | 24.9 µM | – | – | – | – |
| C=CCNC(=S)/N=C/c1c(O)c2ccccc2oc1=O | > 100 µM | > 100 µM | > 100 µM | > 100 µM | > 100 µM | > 100 µM | > 100 µM | > 100 µM | > 100 µM | > 100 µM | > 100 µM | > 100 µM | > 100 µM |
| CC(C)COP(=O)(OCC(C)C)C(NS(=O)(=O)c1ccccc1)(C(F)(F)F)C(F)(F)F | 18.8 µM | 41.6 µM | 39.9 µM | 25.5 µM | 14.4 µM | 7.64 µM | 13.5 µM | 13.6 µM | 23.8 µM | – | – | – | – |
| CN(C)c1nc(=NCc2ccccc2)ss1 | > 10 µM | > 10 µM | > 10 µM | > 10 µM | > 10 µM | > 10 µM | > 10 µM | > 10 µM | > 10 µM | – | – | – | – |
| O=C1CN2C(c3ccccc3)=NN(c3ccc([N+](=O)[O-])cc3)C2(c2ccccc2)c2cc(Cl)ccc2N1CC1CC1 (centres undefined) | > 100 µM | > 100 µM | > 100 µM | > 100 µM | > 100 µM | > 100 µM | > 100 µM | > 100 µM | > 100 µM | – | – | – | – |
| C1=CC2=CC=CC3c4nc5ccc6ccccc6c5nc4C(=C1)C23 (centres undefined) | > 100 µM | > 100 µM | > 100 µM | > 100 µM | > 100 µM | > 100 µM | > 100 µM | > 100 µM | > 100 µM | – | – | – | – |
| CC1CC[C@@]2(OC1)OC1C[C@H]3[C@@H]4CC[C@H]5CC(OC6OC(CO)C(OC7OC(CO)C(O)C(O)C7OC7OC(CO)C(O)C(O)C7O)C(O)C6O)CCC5(C)[C@H]4CCC3(C)C1[C@@H]2C (some centres undefined) | 7.42 µM | 1.94 µM | 3.37 µM | 14.3 µM | 10.4 µM | 11.8 µM | 2.72 µM | 5.85 µM | 20.3 µM | – | – | – | – |
| CC(=O)N/N=C1\NC(=O)C[C@H]2[C@@H]3CC=C4C[C@@H](OC(C)=O)CC[C@]4(C)[C@H]3CC[C@]12C | > 100 µM | > 100 µM | 54.6 µM | > 100 µM | > 100 µM | 31.9 µM | 25.7 µM | > 100 µM | > 100 µM | – | – | – | – |
| O=c1c2cc3c(cc2[nH]c2ncccc12)OCO3 | > 10 µM | > 10 µM | > 10 µM | > 10 µM | > 10 µM | > 10 µM | > 10 µM | > 10 µM | > 10 µM | – | – | – | – |
| O=c1ccc2cc3ccc4cccc5ccc(c2o1)c3c45 | > 100 µM | > 100 µM | 58.3 µM | > 100 µM | – | > 100 µM | – | 55.6 µM | > 100 µM | > 100 µM | > 100 µM | > 100 µM | 56.8 µM |
| CC[C@H]1CN2CCc3cc(OC)c(OC)cc3[C@@H]2C[C@@H]1C[C@H]1NCCc2cc(OC)c(OC)cc21 | 0.295 µM and 0.271 µM | – | 0.164 µM and 0.476 µM | 0.532 µM and 1.09 µM | 0.138 µM | 0.196 µM and 0.0779 µM | 0.0541 µM and 0.0117 µM | 0.0205 µM | 0.76 µM and 1.27 µM | 0.488 µM and 0.312 µM | – | 0.136 µM and 0.0466 µM | – |
| COc1ccc2cc3c4cc5c(cc4cc[n+]3cc2c1OC)OCO5 | 54.2 µM | > 62.2 µM | > 100 µM | > 94.8 µM | 12.2 µM | > 90.4 µM | > 100 µM | > 100 µM | > 100 µM | – | – | – | – |
| O=c1cc(N=P(c2ccccc2)(c2ccccc2)c2ccccc2)n(-c2ccccc2)c(=O)n1-c1ccccc1 | 75.3 µM | > 100 µM | 22.2 µM | > 100 µM | > 100 µM | 47.5 µM | 45.9 µM | 49.5 µM | > 100 µM | – | – | – | – |
